Reference: PubChem BioAssay AID1963854 (Molecular Pharmacology Branch, DTP, NCI, 2024)

System: 186277-243-T-J2-PDC complex spheroid viability
Assay: Anticancer human tumor 186277-243-T-J2-PDC patient-derived colon adenocarcinoma cell line growth inhibition [POLQ]
Conditions: for IC50: curve of first compound; for viability, T/C: stronger effect = lower value
Outline: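 Growth inhibition in 3D: complex spheroids (tumor PDC, HUVEC, MSC) treated with POLQ inhibitor combinations; where Cmax unknown, highest tested concentration 10 microM, except SN-38 at 1 microM.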

[1] = second compound 0.0316 µM, first compound 0.0316 µM
[2] = second compound 0.0316 µM, first compound 0.1 µM
[3] = second compound 0.0316 µM, first compound 0.316 µM
[4] = second compound 0.0316 µM, first compound 1 µM
[5] = second compound 0.0316 µM, first compound 3.16 µM
[6] = second compound 0.0316 µM, first compound 10 µM
[7] = second compound 0.1 µM, first compound 0.0316 µM
[8] = second compound 0.1 µM, first compound 0.1 µM
[9] = second compound 0.1 µM, first compound 0.316 µM
[10] = second compound 0.1 µM, first compound 1 µM
[11] = second compound 0.1 µM, first compound 3.16 µM
[12] = second compound 0.1 µM, first compound 10 µM
[13] = second compound 0.316 µM, first compound 0.0316 µM
[14] = second compound 0.316 µM, first compound 0.1 µM
[15] = second compound 0.316 µM, first compound 0.316 µM
[16] = second compound 0.316 µM, first compound 1 µM
[17] = second compound 0.316 µM, first compound 3.16 µM
[18] = second compound 0.316 µM, first compound 10 µM
[19] = second compound 1 µM, first compound 0.0316 µM
[20] = second compound 1 µM, first compound 0.1 µM
[21] = second compound 1 µM, first compound 0.316 µM
[22] = second compound 1 µM, first compound 1 µM
[23] = second compound 1 µM, first compound 3.16 µM
[24] = second compound 1 µM, first compound 10 µM
[25] = second compound 3.16 µM, first compound 0.0316 µM
[26] = second compound 3.16 µM, first compound 0.1 µM
[27] = second compound 3.16 µM, first compound 0.316 µM
[28] = second compound 3.16 µM, first compound 1 µM
[29] = second compound 3.16 µM, first compound 3.16 µM
[30] = second compound 3.16 µM, first compound 10 µM
[31] = second compound 10 µM, first compound 0.0316 µM
[32] = second compound 10 µM, first compound 0.1 µM
[33] = second compound 10 µM, first compound 0.316 µM
[34] = second compound 10 µM, first compound 1 µM
[35] = second compound 10 µM, first compound 3.16 µM
[36] = second compound 10 µM, first compound 10 µM
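Also: spheroids exposed to compounds for seven days.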
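For viability, T/C in this document: 100% = DMSO vehicle control viability.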

With `CC1COCCN1c1cc(C2(S(C)(=N)=O)CC2)nc(-c2ccnc3[nH]ccc23)n1` (stereo not drawn) + COC1C(OC(N)=O)C(O)C(Oc2ccc3c(O)c(NC(=O)c4ccc(O)c(CC=C(C)C)c4)c(=O)oc3c2C)OC1(C)C the IC50 (second compound 0.0316 µM) was 793 nM, the IC50 (second compound 0.1 µM) was 817 nM and the IC50 (second compound 0.316 µM) was 798 nM. The IC50 (second compound 1 µM) was 822 nM, the IC50 (second compound 3.16 µM) was 788 nM and the IC50 (second compound 10 µM) was 776 nM. For the same compound, the viability, T/C [1] was 111%, the viability, T/C [2] was 96.6% and the viability, T/C [3] was 117%. The viability, T/C [4] was 35.3%, the viability, T/C [5] was 5.81% and the viability, T/C [6] was 4.54%. For the same compound, the viability, T/C [7] was 98%, the viability, T/C [8] was 107% and the viability, T/C [9] was 111%. The viability, T/C [10] was 38.1%, the viability, T/C [11] was 6.12% and the viability, T/C [12] was 4.78%. It also gave a viability, T/C [13] of 97.5%, a viability, T/C [14] of 111% and a viability, T/C [15] of 104%. It also gave a viability, T/C [16] of 36.9%, a viability, T/C [17] of 6.74% and a viability, T/C [18] of 4.71%. The viability, T/C [19] was 95.8%, the viability, T/C [20] was 98.2% and the viability, T/C [21] was 105%. It also gave a viability, T/C [22] of 39.8%, a viability, T/C [23] of 6.98% and a viability, T/C [24] of 4.23%. The viability, T/C [25] was 94.8%, the viability, T/C [26] was 100% and the viability, T/C [27] was 104%. It also gave a viability, T/C [28] of 37.1%, a viability, T/C [29] of 6.45% and a viability, T/C [30] of 5.04%. It also gave a viability, T/C [31] of 108%, a viability, T/C [32] of 104% and a viability, T/C [33] of 106%. The viability, T/C [34] was 34.1%, the viability, T/C [35] was 7.67% and the viability, T/C [36] was 5.44%.
In the case of `CC1COCCN1c1cc(C2(S(C)(=N)=O)CC2)nc(-c2ccnc3[nH]ccc23)n1` (stereo not drawn) + Nc1ccc(C#CCN(C(=O)Cc2ncc(C(F)(F)F)cc2C(F)(F)F)c2ccc(F)cc2)nn1, the IC50 (second compound 0.0316 µM) is reported as 1810 nM, the IC50 (second compound 0.1 µM) is reported as 1790 nM and the IC50 (second compound 0.316 µM) is reported as 1890 nM. For the same compound, the IC50 (second compound 1 µM) was 1780 nM, the IC50 (second compound 3.16 µM) was 1660 nM and the IC50 (second compound 10 µM) was 1640 nM. It also gave a viability, T/C [1] of 103%, a viability, T/C [2] of 96.5% and a viability, T/C [3] of 102%. It also gave a viability, T/C [4] of 88.1%, a viability, T/C [5] of 14.1% and a viability, T/C [6] of 9.47%. For the same compound, the viability, T/C [7] was 97.2%, the viability, T/C [8] was 90.5% and the viability, T/C [9] was 93%. For the same compound, the viability, T/C [10] was 85.9%, the viability, T/C [11] was 14.8% and the viability, T/C [12] was 10.2%. The viability, T/C [13] was 109%, the viability, T/C [14] was 102% and the viability, T/C [15] was 110%. For the same compound, the viability, T/C [16] was 93.6%, the viability, T/C [17] was 14.8% and the viability, T/C [18] was 10.7%. It also gave a viability, T/C [19] of 99.4%, a viability, T/C [20] of 105% and a viability, T/C [21] of 98.8%. For the same compound, the viability, T/C [22] was 84.8%, the viability, T/C [23] was 15.2% and the viability, T/C [24] was 8.83%. It also gave a viability, T/C [25] of 109%, a viability, T/C [26] of 104% and a viability, T/C [27] of 118%. The viability, T/C [28] was 78.7%, the viability, T/C [29] was 15% and the viability, T/C [30] was 8.91%. The viability, T/C [31] was 105%, the viability, T/C [32] was 94.5% and the viability, T/C [33] was 97.6%. The viability, T/C [34] was 77.1%, the viability, T/C [35] was 14.3% and the viability, T/C [36] was 8.26%.
Compound `COc1cccc2c1C(=O)c1c(O)c3c(c(O)c1C2=O)CC(O)(C(=O)CO)CC3OC1CC(N)C(O)C(C)O1` (stereo not drawn) + Nc1ccc(C#CCN(C(=O)Cc2ncc(C(F)(F)F)cc2C(F)(F)F)c2ccc(F)cc2)nn1 has an IC50 (second compound 0.0316 µM) of 255 nM, an IC50 (second compound 0.1 µM) of 253 nM and an IC50 (second compound 0.316 µM) of 258 nM. For the same compound, the IC50 (second compound 1 µM) was 236 nM, the IC50 (second compound 3.16 µM) was 231 nM and the IC50 (second compound 10 µM) was 173 nM. It also gave a viability, T/C [1] of 144%, a viability, T/C [2] of 110% and a viability, T/C [3] of 37.2%. For the same compound, the viability, T/C [4] was 1.35%, the viability, T/C [5] was 0.27% and the viability, T/C [6] was 1.66%. It also gave a viability, T/C [7] of 169%, a viability, T/C [8] of 107% and a viability, T/C [9] of 39%. For the same compound, the viability, T/C [10] was 1.35%, the viability, T/C [11] was 0.37% and the viability, T/C [12] was 1.4%. For the same compound, the viability, T/C [13] was 156%, the viability, T/C [14] was 106% and the viability, T/C [15] was 40.7%. The viability, T/C [16] was 1.12%, the viability, T/C [17] was 1.33% and the viability, T/C [18] was 0.64%. The viability, T/C [19] was 171%, the viability, T/C [20] was 106% and the viability, T/C [21] was 32.5%. The viability, T/C [22] was 1.58%, the viability, T/C [23] was 1.81% and the viability, T/C [24] was 2.38%. For the same compound, the viability, T/C [25] was 153%, the viability, T/C [26] was 101% and the viability, T/C [27] was 32.4%. The viability, T/C [28] was 0.94%, the viability, T/C [29] was 1.21% and the viability, T/C [30] was 1.74%. For the same compound, the viability, T/C [31] was 131%, the viability, T/C [32] was 76.4% and the viability, T/C [33] was 21.8%. The viability, T/C [34] was 1.09%, the viability, T/C [35] was 1.27% and the viability, T/C [36] was 0.63%.
For `CC1COCCN1c1cc(-c2ccnn2C)c2ccnc(-c3ccn[nH]3)c2n1` (stereo not drawn) + Cc1cccc(N(C)C(=O)C2C(O)CCN2c2nc(C)cc(C(F)(F)F)c2C#N)c1, the IC50 (second compound 0.0316 µM) was 41.5 nM, the IC50 (second compound 0.1 µM) was 46.8 nM and the IC50 (second compound 0.316 µM) was 50.4 nM. It also gave an IC50 (second compound 1 µM) of 48.9 nM, an IC50 (second compound 3.16 µM) of 46.8 nM and an IC50 (second compound 10 µM) of 41.7 nM. It also gave a viability, T/C [1] of 61.5%, a viability, T/C [2] of 13% and a viability, T/C [3] of 5%. The viability, T/C [4] was 4.41%, the viability, T/C [5] was 4.26% and the viability, T/C [6] was 4.75%. It also gave a viability, T/C [7] of 69.2%, a viability, T/C [8] of 12.7% and a viability, T/C [9] of 5.72%. For the same compound, the viability, T/C [10] was 4.22%, the viability, T/C [11] was 3.97% and the viability, T/C [12] was 4.43%. It also gave a viability, T/C [13] of 74.4%, a viability, T/C [14] of 14.2% and a viability, T/C [15] of 5.49%. It also gave a viability, T/C [16] of 4.49%, a viability, T/C [17] of 3.63% and a viability, T/C [18] of 4.89%. It also gave a viability, T/C [19] of 72.3%, a viability, T/C [20] of 13.7% and a viability, T/C [21] of 6.05%. For the same compound, the viability, T/C [22] was 4.53%, the viability, T/C [23] was 4.55% and the viability, T/C [24] was 5.17%. It also gave a viability, T/C [25] of 68.1%, a viability, T/C [26] of 15.1% and a viability, T/C [27] of 5.47%. The viability, T/C [28] was 4.21%, the viability, T/C [29] was 4.54% and the viability, T/C [30] was 4.6%. The viability, T/C [31] was 62.2%, the viability, T/C [32] was 11.4% and the viability, T/C [33] was 4.96%. The viability, T/C [34] was 3.76%, the viability, T/C [35] was 5.16% and the viability, T/C [36] was 4.53%.
